From ChEMBL document CHEMBL5465560, “Selectivity Literature for EUbOPEN Chemogenomic Library” (2024)

How the values were obtained:
[1] = target: 5'-AMP-activated protein kinase catalytic subunit alpha-1 (Homo sapiens, UniProt Q13131); conditions: at 10 µM
[2] = target: T1, Atypical kinase COQ8B, mitochondrial (Homo sapiens) (UniProt Q96D53); assay: Selectivity interaction (Ambit KINOMEscan and KiNATiv profiling in Jurkat cells) EUB0000090b ADCK4; format: cell-based; conditions: at 1 µM
T1 sequence (whole entry): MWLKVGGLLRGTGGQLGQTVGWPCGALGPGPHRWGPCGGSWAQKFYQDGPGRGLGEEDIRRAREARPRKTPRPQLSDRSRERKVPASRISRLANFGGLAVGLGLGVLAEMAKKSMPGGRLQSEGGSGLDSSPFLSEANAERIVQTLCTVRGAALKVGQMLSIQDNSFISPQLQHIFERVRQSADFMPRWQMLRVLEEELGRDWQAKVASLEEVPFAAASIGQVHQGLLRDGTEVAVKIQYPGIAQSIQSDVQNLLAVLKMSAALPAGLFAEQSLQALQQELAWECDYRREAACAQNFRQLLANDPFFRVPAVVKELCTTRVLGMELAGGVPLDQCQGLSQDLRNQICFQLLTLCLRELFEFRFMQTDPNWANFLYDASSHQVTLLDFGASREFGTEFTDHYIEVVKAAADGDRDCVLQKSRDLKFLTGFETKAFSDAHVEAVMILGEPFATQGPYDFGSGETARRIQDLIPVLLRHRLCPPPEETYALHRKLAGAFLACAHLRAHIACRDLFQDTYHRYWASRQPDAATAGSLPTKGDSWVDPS

Aurora kinase B = Aurora kinase B (Homo sapiens, UniProt Q96GD4); assay: Selectivity interaction (Ambit KINOMEscan and KiNATiv profiling in Jurkat cells) EUB0000090b AURKB; format: cell-based; conditions: at 1 µM
Sequence of Aurora kinase B (Q96GD4 whole entry): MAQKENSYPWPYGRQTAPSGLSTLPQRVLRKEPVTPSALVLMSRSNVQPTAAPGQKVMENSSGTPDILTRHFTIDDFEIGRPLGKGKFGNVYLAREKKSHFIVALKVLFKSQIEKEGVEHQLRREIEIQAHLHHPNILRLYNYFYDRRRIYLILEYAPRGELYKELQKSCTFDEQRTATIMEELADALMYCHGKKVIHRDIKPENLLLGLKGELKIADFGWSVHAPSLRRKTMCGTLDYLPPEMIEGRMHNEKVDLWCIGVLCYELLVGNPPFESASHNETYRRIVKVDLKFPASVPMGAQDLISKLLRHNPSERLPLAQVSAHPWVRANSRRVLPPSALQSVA

[3] = target: T2, cGMP-dependent protein kinase 1 (Homo sapiens) (UniProt Q13976); assay: Selectivity interaction (Kinase panel (Z-LYTE Assay)) EUB0001632a PRKG1; conditions: at 10 µM
T2 sequence (whole entry): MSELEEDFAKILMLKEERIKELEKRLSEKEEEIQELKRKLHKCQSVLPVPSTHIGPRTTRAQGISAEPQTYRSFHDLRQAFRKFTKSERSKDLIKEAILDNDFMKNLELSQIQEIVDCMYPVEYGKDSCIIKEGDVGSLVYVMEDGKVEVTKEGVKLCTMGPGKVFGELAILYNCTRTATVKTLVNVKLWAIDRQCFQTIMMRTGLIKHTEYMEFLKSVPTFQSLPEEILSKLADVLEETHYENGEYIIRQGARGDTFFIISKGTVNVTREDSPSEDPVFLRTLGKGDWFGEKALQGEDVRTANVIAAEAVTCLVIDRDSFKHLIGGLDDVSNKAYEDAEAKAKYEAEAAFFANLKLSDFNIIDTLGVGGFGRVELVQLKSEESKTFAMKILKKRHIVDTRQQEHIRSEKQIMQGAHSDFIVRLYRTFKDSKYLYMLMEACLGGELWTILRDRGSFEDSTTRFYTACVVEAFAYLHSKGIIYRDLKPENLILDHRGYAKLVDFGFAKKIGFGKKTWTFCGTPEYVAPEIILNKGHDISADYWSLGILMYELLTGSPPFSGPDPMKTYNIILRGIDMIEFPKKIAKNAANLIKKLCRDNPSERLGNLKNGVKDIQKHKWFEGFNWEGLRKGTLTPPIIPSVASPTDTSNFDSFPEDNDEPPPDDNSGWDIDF

[4] = target: T3, Myosin light chain kinase (Homo sapiens) (UniProt Q32MK0); assay: Selectivity interaction (KinomeScan (DiscoverX)) EUB0000695a MYLK3; conditions: at 100 nM
T3 sequence (whole entry): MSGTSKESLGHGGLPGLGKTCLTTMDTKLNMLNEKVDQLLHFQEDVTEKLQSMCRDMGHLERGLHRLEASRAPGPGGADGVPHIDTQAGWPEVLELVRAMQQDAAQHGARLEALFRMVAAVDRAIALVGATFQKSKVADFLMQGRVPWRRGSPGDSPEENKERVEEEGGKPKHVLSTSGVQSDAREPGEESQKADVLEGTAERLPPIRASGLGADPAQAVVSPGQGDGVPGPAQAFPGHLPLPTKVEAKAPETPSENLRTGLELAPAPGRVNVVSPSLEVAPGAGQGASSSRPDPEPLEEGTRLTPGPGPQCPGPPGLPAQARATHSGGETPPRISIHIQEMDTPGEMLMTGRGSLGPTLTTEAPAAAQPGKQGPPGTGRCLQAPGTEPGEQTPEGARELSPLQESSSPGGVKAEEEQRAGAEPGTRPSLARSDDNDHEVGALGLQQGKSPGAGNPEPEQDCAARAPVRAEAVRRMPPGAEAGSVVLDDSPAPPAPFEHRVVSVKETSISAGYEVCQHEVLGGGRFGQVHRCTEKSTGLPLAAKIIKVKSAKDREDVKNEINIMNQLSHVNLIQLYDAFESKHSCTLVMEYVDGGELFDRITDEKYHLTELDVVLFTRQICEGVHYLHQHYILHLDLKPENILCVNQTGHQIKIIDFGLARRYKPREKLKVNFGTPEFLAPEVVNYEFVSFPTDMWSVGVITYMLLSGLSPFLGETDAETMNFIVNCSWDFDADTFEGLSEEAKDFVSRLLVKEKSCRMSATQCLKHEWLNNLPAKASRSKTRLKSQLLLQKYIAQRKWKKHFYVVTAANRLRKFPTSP

[5] = target: SRSF protein kinase 2 (Homo sapiens) (UniProt P78362); assay: Selectivity interaction (KinomeScan (DiscoverX)) EUB0000045b SRPK2
Sequence of SRSF protein kinase 2 (Homo sapiens) (P78362 whole entry, looked up): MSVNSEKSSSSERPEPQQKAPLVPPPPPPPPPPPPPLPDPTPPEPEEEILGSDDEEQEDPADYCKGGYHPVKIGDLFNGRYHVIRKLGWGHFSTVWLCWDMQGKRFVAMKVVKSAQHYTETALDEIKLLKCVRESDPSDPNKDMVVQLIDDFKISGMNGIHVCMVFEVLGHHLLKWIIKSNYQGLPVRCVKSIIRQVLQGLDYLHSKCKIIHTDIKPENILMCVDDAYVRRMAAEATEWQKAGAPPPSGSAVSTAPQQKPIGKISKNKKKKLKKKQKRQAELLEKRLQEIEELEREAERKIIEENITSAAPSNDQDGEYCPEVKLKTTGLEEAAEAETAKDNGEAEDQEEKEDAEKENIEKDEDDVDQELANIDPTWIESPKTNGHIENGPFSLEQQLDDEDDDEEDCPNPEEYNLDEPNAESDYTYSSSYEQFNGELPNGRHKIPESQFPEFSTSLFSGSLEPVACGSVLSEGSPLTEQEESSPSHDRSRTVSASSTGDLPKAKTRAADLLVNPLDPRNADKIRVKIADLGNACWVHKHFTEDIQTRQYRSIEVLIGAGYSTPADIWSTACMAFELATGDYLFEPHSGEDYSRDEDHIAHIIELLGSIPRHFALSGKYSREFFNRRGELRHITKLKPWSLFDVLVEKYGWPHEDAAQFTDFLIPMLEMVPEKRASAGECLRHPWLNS

Sequence of 5'-AMP-activated protein kinase catalytic subunit alpha-1 (Q13131 whole entry, looked up): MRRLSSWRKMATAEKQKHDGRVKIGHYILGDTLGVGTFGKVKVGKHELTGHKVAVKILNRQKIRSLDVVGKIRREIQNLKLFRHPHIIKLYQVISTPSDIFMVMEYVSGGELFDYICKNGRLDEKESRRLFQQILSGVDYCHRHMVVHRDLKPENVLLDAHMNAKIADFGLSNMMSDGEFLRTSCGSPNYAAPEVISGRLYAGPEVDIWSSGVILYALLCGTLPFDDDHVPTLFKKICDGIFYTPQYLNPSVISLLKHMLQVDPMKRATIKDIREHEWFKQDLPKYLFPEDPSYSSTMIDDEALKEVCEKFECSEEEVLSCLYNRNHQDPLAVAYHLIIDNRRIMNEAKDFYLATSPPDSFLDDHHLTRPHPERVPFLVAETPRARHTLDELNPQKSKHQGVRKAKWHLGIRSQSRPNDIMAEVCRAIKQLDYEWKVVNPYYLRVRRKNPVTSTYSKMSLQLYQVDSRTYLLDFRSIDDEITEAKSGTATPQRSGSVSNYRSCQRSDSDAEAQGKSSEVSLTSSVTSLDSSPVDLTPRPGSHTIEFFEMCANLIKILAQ

Cc1cc([C@@H](C)Nc2ccccc2C(=O)O)c2nc(N3CCOCC3)cc(=O)n2c1 [AZD-6482] showed a % of control [1] of 100%.
Molecule CN(C)C/C=C/C(=O)Nc1ccc(C(=O)N2CCCC(Nc3ncc(Cl)c(-c4c[nH]c5ccccc45)n3)C2)cc1 (configuration not stated) has a % of control [2] of 69% and a % of control (Aurora kinase B) of 100%.
Cn1cc(-n2cnc3c(NCc4nc5cc(Cl)c(Cl)cc5[nH]4)nc(N4CCOCC4)nc32)cn1 was tested, and the % of control [3] was -8.04%.
Cc1cc(F)c(C(=O)Nc2cccc(-c3nncn3C(C)C)n2)cc1-n1cnc(C2CC2)c1 showed a % of control [4] of 100%.
Molecule C=CC(=O)Nc1cc(-n2c(=O)ccc3cnc4ccc(-c5ccc(NS(C)(=O)=O)cc5)cc4c32)ccc1C has a % of control ([5]; at 1 µM) of 100% and a % of control ([5]; at 10 µM) of 81%.
